In US7192950B2, “Benzazepines and related heterocyclic derivatives which are useful as orexin receptor antagonists” (Actelion Pharmaceuticals, Ltd., priority 2000, dated 2007):

Assays:
[1] = target: T1, human orexin-2 receptor (Homo sapiens, UniProt O43614); test: Intracellular calcium measurements (FLIPR), OX2 receptor antagonist activity; type: cell-based; settings: CHO cells expressing human orexin-2 receptor; 10 nM orexin-A as agonist; fluo-3 calcium signal
T1 construct: expressed in transfected cells; host or cells: CHO cells (G418 selection)
T1 sequence (O43614 1-444): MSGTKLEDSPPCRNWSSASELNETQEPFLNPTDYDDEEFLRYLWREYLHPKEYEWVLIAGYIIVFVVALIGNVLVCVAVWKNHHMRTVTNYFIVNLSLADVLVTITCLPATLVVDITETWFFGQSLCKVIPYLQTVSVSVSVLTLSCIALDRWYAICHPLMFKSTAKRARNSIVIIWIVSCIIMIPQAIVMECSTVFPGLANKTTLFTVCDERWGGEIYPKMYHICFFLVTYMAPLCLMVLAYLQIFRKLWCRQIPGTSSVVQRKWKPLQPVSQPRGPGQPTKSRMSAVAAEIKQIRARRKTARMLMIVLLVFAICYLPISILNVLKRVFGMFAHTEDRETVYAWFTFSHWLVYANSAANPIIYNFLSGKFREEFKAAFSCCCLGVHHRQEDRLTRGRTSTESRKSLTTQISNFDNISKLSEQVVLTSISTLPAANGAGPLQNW
Method: (§1) The OX1 and OX2 receptor antagonist activities of the compounds of general formula (I) were determined in accordance with the following experimental method.
(§2) Intracellular Calcium Measurements
(§3) Chinese hamster ovary (CHO) cells expressing the human orexin-1 receptor and the human orexin-2 receptor, respectively, were grown in culture medium (Ham F-12 with L Glutamine) containing 300 μg/ml G418, 100 U/ml penicillin, 100 μg/ml streptomycin and 10% inactivated foetal calf serum (FCS).
(§4) The cells were seeded at 80'000 cells/well into 96-well black clear bottom sterile plates (Costar) which had been precoated with 1% gelatine in Hanks' Balanced Salt Solution (HBSS). All reagents were from Gibco BRL.
(§5) The seeded plates were incubated overnight at 37° C. in 5% CO2.
(§6) Human orexin-A as an agonist was prepared as 1 mM stock solution in methanol:water (1:1), diluted in HBSS containing 0.1% BSA and 2 mM HEPES for use in the assay at a final concentration of 10 nM.
(§7) Antagonists were prepared as 10 mM stock solution in DMSO, then diluted in 96-well plates, first in DMSO, then in HBSS containing 0.1% bovine serum albumin (BSA) and 2 mM HEPES.
(§8) On the day of the assay, 100 μl of loading medium (HBSS containing 1% FCS, 2 mM HEPES, 5 mM probenecid (Sigma) and 3 μM of the fluorescent calcium indicator fluo-3 AM (1 mM stock solution in DMSO with 10% pluronic acid Molecular Probes)) was added to each well.
(§9) The 96-well plates were incubated for 60 min at 37° C. in 5% CO2. The loading solution was then aspirated and cells were washed 3 times with 200 μl HBSS containing 2.5 mM probenecid, 0.1% BSA, 2 mM HEPES. 100 μl of that same buffer was left in each well.
(§10) Within the Fluorescent Imaging Plate Reader (FLIPR, Molecular Devices), antagonists were added to the plate in a volume of 50 μl, incubated for 20 min and finally 100 μl of agonist was added. Fluorescence was measured for each well at 1 second intervals, and the height of each fluorescence peak was compared to the height of the fluorescence peak induced by 10 nM orexin-A with buffer in place of antagonist. For each antagonist; IC50 values (the concentration of compound needed to inhibit 50% of the agonistic response) were determined.

[2] = target: T2, human orexin-1 receptor (Homo sapiens, UniProt O43613); test: Intracellular calcium measurements (FLIPR), OX1 receptor antagonist activity; type: cell-based; settings: CHO cells expressing human orexin-1 receptor; 10 nM orexin-A as agonist; fluo-3 calcium signal
T2 construct: expressed in transfected cells; host or cells: CHO cells (G418 selection)
T2 sequence (O43613 1-425): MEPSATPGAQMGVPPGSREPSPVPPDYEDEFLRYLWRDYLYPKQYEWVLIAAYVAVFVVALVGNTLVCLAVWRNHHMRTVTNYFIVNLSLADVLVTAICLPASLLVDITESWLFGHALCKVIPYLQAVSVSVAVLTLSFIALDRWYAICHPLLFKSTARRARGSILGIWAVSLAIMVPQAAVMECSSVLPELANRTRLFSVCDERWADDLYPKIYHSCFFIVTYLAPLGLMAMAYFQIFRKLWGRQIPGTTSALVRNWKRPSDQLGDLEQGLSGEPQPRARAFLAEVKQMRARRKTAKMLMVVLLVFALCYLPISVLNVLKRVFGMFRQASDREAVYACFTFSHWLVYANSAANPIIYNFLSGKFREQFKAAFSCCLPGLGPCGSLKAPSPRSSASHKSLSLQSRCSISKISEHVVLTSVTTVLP
Method: as §1, §2, §3, §4, §5, §6, §7, §8, §9, §10

Compound | IC50 [1] [nM] | IC50 [2] [nM]
COc1ccc(CC2c3cc(OC)c(OC)cc3OCCN2CC(=O)NC2CCc3ccccc32)cc1OC (racemic) [Example 5, 2-[5-(3,4-Dimethoxy-benzyl)-7,8-dimethoxy-2,3-dihydro-5H-benzo[f][1,4]oxazepin-4-yl]-N-indan-1-yl-acetamide] | 7900 | 64
COc1ccc(CC2c3cc(OC)c(OC)cc3CCCN2CC(=O)NC2CCc3ccccc32)cc1OC (centres unmarked) [Example 9, 2-[1-(3,4-Dimethoxy-benzyl)-7,8-dimethoxy-1,3,4,5-tetrahydro-benzo[c]azepin-2-yl]-N-indan-1-yl-acetamide] | 1240 | 23
COc1ccc(CC2c3cc(OC)c(OC)cc3CCCN2C(C(=O)NCc2ccco2)c2ccccc2)cc1OC (centres unmarked) [Example 25, 2-[1-(3,4-Dimethoxy-benzyl)-7,8-dimethoxy-1,3,4,5-tetrahydro-benzo[c]azepin-2-yl]-N-furan-2-ylmethyl-2-phenyl-acetamide] | 241 | 41
COc1ccc(CC2c3cc(OC)c(OC)cc3CCCN2C(C(=O)NCc2nc3ccccc3[nH]2)c2ccccc2)cc1OC (centres unmarked) [Example 35, N-(1H-Benzoimidazol-2-ylmethyl)-2-[1-(3,4-dimethoxy-benzyl)-7,8-dimethoxy-1,3,4,5-tetrahydro-benzo[c]azepin-2-yl]-2-phenyl-acetamide] | 7040 | 32
COc1ccc(CC2c3cc(OCC(F)F)c(OC)cc3CCCN2CC(=O)NC2CCc3ccccc32)cc1OC (centres unmarked) [Example 69, 2-[8-(2,2-Difluoro-ethoxy)-1-(3,4-dimethoxy-benzyl)-7-methoxy-1,3,4,5-tetrahydro-benzo[c]azepin-2-yl]-N-indan-1-yl-acetamide] | 349 | 9

Next, values leading:

IC50 [1] [nM] | IC50 [2] [nM] | Compound
> 10000 | 99 | COc1ccc(CC2c3cc(OC)c(OC)cc3CCCN2CC(=O)NC2Cc3ccccc3C2)cc1OC (centres unmarked) [Example 3, 2-[1-(3,4-Dimethoxy-benzyl)-7,8-dimethoxy-1,3,4,5-tetrahydro-benzo[c]azepin-2-yl]-N-indan-2-yl-acetamide]
231 | 23 | COc1ccc(CC2c3cc(OC)c(OC)cc3CCCN2C(C(=O)NC2Cc3ccccc3C2)c2ccccc2)cc1OC (centres unmarked) [Example 20, 2-[1-(3,4-Dimethoxy-benzyl)-7,8-dimethoxy-1,3,4,5-tetrahydro-benzo[c]azepin-2-yl]-N-indan-2-yl-2-phenyl-acetamide]
189 | 21 | COc1ccc(CC2c3cc(OC)c(OC)cc3CCCN2C(C(=O)NCc2ccc3c(c2)OCO3)c2ccccc2)cc1OC (centres unmarked) [Example 23, N-Benzo[1,3]dioxol-5-ylmethyl-2-[1-(3,4-dimethoxy-benzyl)-7,8-dimethoxy-1,3,4,5-tetrahydro-benzo[c]azepin-2-yl]-2-phenyl-acetamide]
9190 | 41 | COC(=O)CCNC(=O)C(c1ccccc1)N1CCCc2cc(OC)c(OC)cc2C1Cc1ccc(OC)c(OC)c1 (centres unmarked) [Example 34, 3-{2-[1-(3,4-Dimethoxy-benzyl)-7,8-dimethoxy-1,3,4,5-tetrahydro-benzo[c]azepin-2-yl]-2-phenyl-acetylamino}-propionic acid methyl ester]
174 | 12 | COc1ccc(CC2c3cc(OC(C)C)c(OC)cc3CCCN2CC(=O)NC2CCc3ccccc32)cc1OC (centres unmarked) [Example 68, 2-[1-(3,4-Dimethoxy-benzyl)-8-isopropoxy-7-methoxy-1,3,4,5-tetrahydro-benzo[c]azepin-2-yl]-N-indan-1-yl-acetamide]
